Assay results published in patent US20130116241A1, “NOVEL INHIBITOR COMPOUNDS OF PHOSPHODIESTERASE TYPE 10A” (AbbVie Inc., priority 2011, published 2013).
Where a name gives a salt, the structure may show the parent alone.

Target: human PDE10A (UniProt Q9Y233)
Experiment: Measurement of PDE activity (recombinant enzyme, HTRF cAMP kit)
Format: biochemical
Conditions: Table 1, substrate 20 nM for PDE10, 60 minutes at 29 C, read-out: IC50
Method: The recombinant PDE proteins are used in in vitro enzymatic reaction for measurement of PDE activity. These recombinant proteins, including PDE10A (human, rat and mouse PDE10) and isoforms of PDEs 1, 3, 4, and 5, were purchased from commercial vendor BPS Bioscience. The enzymatic activity of PDEs was determined by cAMP measurement kit from CisBio (IBA) using HTRF technology.
The PDE enzymatic reaction was carried out in assay buffer (20 mM Tris-HCl pH7.5, 10 mM MgCl2, 0.1% bovine serum albumin) containing enzyme and substrate. The PDE enzymes concentration ranged from 10 pM-250 pM, depending on each enzyme's specific activity. The substrate cyclic nucleotide (cAMP or cGMP) concentration used in the assay was 20 nM for PDE10, and 100 nM for other PDEs. The inhibitory effect of compound was determined by incubating various concentration of inhibitor in the enzymatic assay. Typically, compound was serial diluted in DMSO then further diluted in assay buffer. Next, the compound at varying concentration was mixed with PDE enzyme. The reaction was initiated by addition of cyclic nucleotide substrate, and incubated for 60 minutes at 29 C. The reaction was stopped by addition of lysis buffer from assay kit. The cAMP-d2 and anti-cAMP cryptate in the lysis buffer detected the level of cAMP left from the PDE hydrolysis reaction. The PDE activity is reversely correlated with the amount of cAMP left in the reaction and can be converted to the percent activity of an uninhibited control (100%). Thus, IC50 value of inhibitor can be obtained by plotting inhibitor concentration against PDE activity at that concentration.

Sequence of human PDE10A (Q9Y233 290-1055 limits assumed): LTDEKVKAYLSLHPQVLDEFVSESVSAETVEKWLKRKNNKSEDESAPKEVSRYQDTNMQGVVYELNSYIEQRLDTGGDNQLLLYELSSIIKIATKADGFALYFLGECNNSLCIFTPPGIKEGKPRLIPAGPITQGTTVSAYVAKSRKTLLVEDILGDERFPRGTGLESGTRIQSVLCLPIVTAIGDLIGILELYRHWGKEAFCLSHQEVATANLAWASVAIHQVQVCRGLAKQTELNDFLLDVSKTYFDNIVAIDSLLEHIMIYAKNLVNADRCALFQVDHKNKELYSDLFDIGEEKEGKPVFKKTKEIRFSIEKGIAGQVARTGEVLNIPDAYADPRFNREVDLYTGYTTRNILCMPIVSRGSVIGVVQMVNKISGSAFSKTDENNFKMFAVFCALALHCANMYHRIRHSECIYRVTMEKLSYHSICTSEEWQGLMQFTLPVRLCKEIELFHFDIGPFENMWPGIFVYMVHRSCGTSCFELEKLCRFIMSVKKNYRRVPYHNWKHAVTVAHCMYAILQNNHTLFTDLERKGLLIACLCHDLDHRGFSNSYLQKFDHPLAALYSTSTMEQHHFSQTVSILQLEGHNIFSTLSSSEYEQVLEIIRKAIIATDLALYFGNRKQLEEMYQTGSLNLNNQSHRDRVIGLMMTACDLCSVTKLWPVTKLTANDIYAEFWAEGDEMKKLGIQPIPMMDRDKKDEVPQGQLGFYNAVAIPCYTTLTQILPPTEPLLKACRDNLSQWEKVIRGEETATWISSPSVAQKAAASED

| IC50 | Structure (SMILES) |
| --- | --- |
| 100 to 200 nM | O=c1c2c(-c3cccc4[nH]ccc34)csc2cnn1CCc1ccc2ccccc2n1 [Example 45, 3-(1H-indol-4-yl)-5-(2-quinolin-2-yl-ethyl)-5H-thieno[2,3-d]pyridazin-4-one] |
| 100 to 200 nM | O=c1c2c(-c3cccnc3)cccc2ccn1C1CC1c1ccc2ccccc2n1 (single isomer, unassigned; (+)) [Example 239a, (+) anti 8-(pyridin-3-yl)-2-(2-(quinolin-2-yl)cyclopropyl)isoquinolin-1(2H)-one] |
| < 100 nM | O=c1c2c(-c3ccncc3)cccc2cnn1CCc1cn2ccccc2n1 [Example 166, 2-[2-(Imidazo[1,2-a]pyridin-2-yl)ethyl]-8-(pyridin-4-yl)phthalazin-1(2H)-one] |
| < 100 nM | O=c1c2c(N3CCC(O)CC3)cccc2cnn1CCc1cn2ccccc2n1 [compound 341, 8-(4-hydroxypiperidin-1-yl)-2-[2-(imidazo[1,2-a]pyridin-2-yl)ethyl]phthalazin-1(2H)-one] |
| 100 to 200 nM | O=c1c2c(N3CC[C@@H](O)C3)cccc2ccn1C1CC1c1ccc2ccccc2n1 (stereo partly drawn) [Example 250, anti 8-((3R)-3-hydroxypyrrolidin-1-yl)-2-(2-(quinolin-2-yl)cyclopropyl)isoquinolin-1(2H)-one (2E)-but-2-enedioate] |
| < 100 nM | O=c1c2c(-c3ccoc3)csc2cnn1CCc1ccc2ccccc2n1 [Example 41, 3-(furan-3-yl)-5-[2-(quinolin-2-yl)ethyl]thieno[2,3-d]pyridazin-4(5H)-one] |
| < 100 nM | O=c1c2c(-c3ccncc3)coc2ccn1CCc1ccc2ccccc2n1 [Example 228, 3-(Pyridin-4-yl)-5-(2-(quinolin-2-yl)ethyl)furo[3,2-c]pyridin-4(5H)-one hydrochloride] |
| 200 to 500 nM | COc1cc(OC)cc(-c2cccc3cnn(CCc4ccc5ccccc5n4)c(=O)c23)c1 [Example 152, 8-(3,5-Fimethoxyphenyl)-2-[2-(quinolin-2-yl)ethyl]phthalazin-1(2H)-one] |
| 100 to 200 nM | O=c1c2c(N3CCS(=O)(=O)CC3)cccc2cnn1CCc1cn2ccccc2n1 [Example 175, 8-(1,1-Dioxidothiomorpholin-4-yl)-2-[2-(imidazo[1,2-a]pyridin-2-yl)ethyl]phthalazin-1(2H)-one] |
| < 100 nM | O=c1c2c(NC3COC3)ccnc2cnn1CCc1ccc2ccccc2n1 [compound 406, 4-(oxetan-3-ylamino)-6-[2-(quinolin-2-yl)ethyl]pyrido[2,3-d]pyridazin-5(6H)-one] |
| < 100 nM | O=c1c2c(NC3CCCNC3)cccc2cnn1CCc1cn2ccccc2n1 (stereo not shown) [compound 393, dihydrochloride] |
| < 100 nM | O=c1c2c(N3CC4CCC(C3)O4)cccc2cnn1CCc1cn2ccccc2n1 [compound 349, 2-[2-(imidazo[1,2-a]pyridin-2-yl)ethyl]-8-(8-oxa-3-azabicyclo[3.2.1]oct-3-yl)phthalazin-1(2H)-one] |
| 100 to 200 nM | O=c1c2c(N3CCC(C(F)F)C3)cccc2ccn1C1CC1c1ccc2ccccc2n1 (stereo not drawn) [Example 262, anti 8-(3-(difluoromethyl)pyrrolidin-1-yl)-2-(2-(quinolin-2-yl)cyclopropyl)isoquinolin-1(2H)-one, trifluoroacetate] |
| 200 to 500 nM | CCc1ccc(CCn2ccc3scc(-c4ccncc4)c3c2=O)nc1 [Example 209, 5-[2-(5-Ethylpyridin-2-yl)ethyl]-3-(pyridin-4-yl)thieno[3,2-c]pyridin-4(5H)-one hydrochloride] |
| 100 to 200 nM | O=c1c2cccc(-c3ccncc3)c2cnn1CCc1nc2ccccc2[nH]1 [compound 398, 2-[2-(1H-benzimidazol-2-yl)ethyl]-5-(pyridin-4-yl)phthalazin-1(2H)-one] |
| < 100 nM | O=c1c2c(-c3cncnc3)cccc2ccn1[C@@H]1C[C@H]1c1ccc2ccccc2n1 (racemic) [Example 240, anti 8-(pyrimidin-5-yl)-2-(2-(quinolin-2-yl)cyclopropyl)isoquinolin-1(2H)-one] |

| IC50 | Structure (SMILES) |
| --- | --- |
| < 100 nM | O=c1c2c(-c3ccncc3)csc2ccn1/C=C/c1nc2ccccc2s1 [compound 415, 5-[(E)-2-(1,3-benzothiazol-2-yl)ethenyl]-3-(pyridin-4-yl)thieno[3,2-c]pyridin-4(5H)-one] |
| < 100 nM | O=c1c2c(N3CC4COCC4C3)cccc2cnn1CCc1cn2ccccc2n1 (stereo not shown) [Example 176, 2-[2-(Imidazo[1,2-a]pyridin-2-yl)ethyl]-8-(tetrahydro-1H-furo[3,4-c]pyrrol-5(3H)-yl)phthalazin-1(2H)-one hydrochloride] |
| < 100 nM | O=c1c2c(-c3ccncc3)csc2c(F)cn1C1CC1c1ccc2ccccc2n1 (stereo not shown) [compound 279] |
| < 100 nM | O=c1c2c(-c3ccc4cc[nH]c4c3)csc2cnn1CCc1ccc2ccccc2n1 [Example 36, 3-(1H-indol-6-yl)-5-[2-(quinolin-2-yl)ethyl]thieno[2,3-d]pyridazin-4(5H)-one] |
| < 100 nM | O=c1c2c(-c3cccc(O)c3)csc2ccn1CCc1ccc2ccccc2n1 [Example 208, 3-(3-Hydroxyphenyl)-5-[2-(quinolin-2-yl)ethyl]thieno[3,2-c]pyridin-4(5H)-one hydrochloride] |
| 200 to 500 nM | O=c1c2c(-c3cnc(C4CC4)nc3)cccc2cnn1CCc1cn2ccccc2n1 [compound 343, 8-(2-cyclopropylpyrimidin-5-yl)-2-[2-(imidazo[1,2-a]pyridin-2-yl)ethyl]phthalazin-1(2H)-one] |
| 100 to 200 nM | O=c1c2c(N3CC4(COC4)C3)cccc2cnn1CCc1cn2ccccc2n1 [compound 334, 2-[2-(imidazo[1,2-a]pyridin-2-yl)ethyl]-8-(2-oxa-6-azaspiro[3.3]hept-6-yl)phthalazin-1(2H)-one] |
| < 100 nM | O=c1c2c(C3CCNCC3)cccc2cnn1CCc1cn2c(n1)CCCC2 [compound 365, hydrochloride] |
| < 100 nM | O=c1c2c(NCC3COC3)cccc2cnn1CCc1cn2ccccc2n1 [compound 383, 2-[2-(imidazo[1,2-a]pyridin-2-yl)ethyl]-8-[(oxetan-3-ylmethyl)amino]phthalazin-1(2H)-one] |
| 200 to 500 nM | O=c1c2c(-c3ccncc3)csc2cnn1CCc1ccc2cc(Cl)ccc2n1 [compound 318, hydrochloride] |
| < 100 nM | O=c1c2c(C3CCNCC3)cccc2cnn1CCc1cn2ccccc2n1 [compound 354, hydrochloride] |
| 200 to 500 nM | O=c1c2c(-c3ccc4c(c3)OCCO4)csc2cnn1CCc1ccc2ccccc2n1 [Example 50, 3-(2,3-dihydro-1,4-benzodioxin-6-yl)-5-[2-(quinolin-2-yl)ethyl]thieno[2,3-d]pyridazin-4(5H)-one] |
| 200 to 500 nM | COc1cccc(-c2csc3cnn(CCc4ccc5ccccc5n4)c(=O)c23)c1F [Example 79, 3-(2-fluoro-3-methoxyphenyl)-5-[2-(quinolin-2-yl)ethyl]thieno[2,3-d]pyridazin-4(5H)-one] |
| < 100 nM | O=c1c2c(-c3ccc4[nH]ncc4c3)csc2cnn1CCc1ccc2ccccc2n1 [Example 87, 3-(1H-indazol-5-yl)-5-[2-(quinolin-2-yl)ethyl]thieno[2,3-d]pyridazin-4(5H)-one] |
| 200 to 500 nM | COc1cccc(-c2csc3cnn(CCc4ccc5ccccc5n4)c(=O)c23)c1 [Example 26, 3-(3-methoxyphenyl)-5-[2-(quinolin-2-yl)ethyl]thieno[2,3-d]pyridazin-4(5H)-one] |
